From patent publication US6723897B2, “Methods for controlling gibberellin levels” (Monsanto Technology, LLC, priority 1998, dated 2004)

What was measured:
[1] = tested on: wild-type soybean line A3237; experiment: Experiment I greenhouse test, seed imbibition, wild-type soybean; details: 0.25 mg/ml; seeds imbibed 5 hours
[2] = tested on: AX5/antisense CPScc soybean line 234 (R3); experiment: Hilum seed treatment of epicotyl-intensive GA-deficient soybean, height (FIG. 43); assay type: in vivo, Glycine max; details: 10 DAP; for restoration of height of line 234 soybeans: hypocotyl and epicotyl elongation, hypocotyl to epicotyl ratio not maintained; for response of line 234 height: seed treatment rates between 0.1 and 1 μg/seed
Description: The purpose of this study is to evaluate the ability of four GA compounds, i.e., GA9, GA5, GA3-3-acetate, and GA12, to restore normal growth in AX5/antisense CPScc soybean lines when applied as a seed treatment.
Line 46 plants are R2; Line 234 plants are R3.
The GA compounds are dissolved in ethanol and applied to the hilum of dry seeds as not more than 10 μl droplets with a syringe. If multiple applications are made to seeds, the previous application is allowed to dry before a subsequent application is made.
Seeds are sown 1 inch deep in commercial potting soil (Metromix 200) in 4-inch plastic pots and placed in a greenhouse set for 12 hours artificial light and a temperature regime of 85° F. (29° C.) day and 75° F. night (24° C.). Pots are watered as necessary by overhead hand watering. Hypocotyl and epicotyl measurements are made for each plant at various stages of plant growth.
The lower dashed horizontal line represents the total height of untreated AX5 line 234 soybeans. The upper dashed horizontal line represents the total height of untreated wild-type A4922 soybeans. Measurements are made 10 days after planting.

[3] = tested on: constitutively GA-deficient transgenic dwarf soybean line 719; experiment: Experiment II second greenhouse test, seed imbibition, GA-deficient soybean; assay type: in vivo, Glycine max; details: seeds imbibed 6 hours
Description: (§1) (The compounds are tested in Experiment I at only one concentration, i.e., 0.25 mg/ml). Test tubes contained […] of ethanol solution per tube. Final volumes are made up to 30 ml with deionized water. After shaking, the treatment solutions (15 ml each) are transferred to each of two 50 ml test tubes. […] Twenty seeds are used in each treatment. Dry seed, ethanol/water-imbibed seed (1% ethanol in water, v/v), and water-imbibed seeds are included as controls. Seeds are imbibed for 6 hours in the test solutions, then planted in bread pans containing Metromix 350 (The Scotts Company, Marysville, Ohio), and covered with 0.5″ Metro-mix. Covered pans are transferred to the greenhouse and subirrigated. Illumination is at a light intensity of 300-400 μmolm^−2s^−1 photosynthetic photon flux; 16 hours light/8 hours dark. Subsequent waterings are also through sub-irrigation until the test is terminated three weeks later. Observations included the number of dwarf, intermediate, and tall plants; plant height; uniformity of rescue; and any visual effects. Digital photographs are also taken.

[4] = tested on: wild-type soybean line A3237; experiment: Experiment II second greenhouse test, seed imbibition, wild-type soybean; assay type: in vivo, Glycine max; details: seeds imbibed 6 hours
Description: as §1

[5] = tested on: transgenic line 719 soybean; experiment: Field trial of seed coatings under soil compaction / different soils, GA-deficient soybean; assay type: in vivo, Glycine max; details: for Count (emergence) / Dwarfs (number of dwarfs not rescued) / Dwarfs (number not rescued): Line 719; for rank of potential for rescuing GA-deficient dwarf soybeans without decreasing emergence: based on the last two field trials; for best to least selectivity order: emergence under soil compaction, margin of selectivity, rescue without overelongation
wild-type A3237 soybean = experiment: Hilum treatment of soybean seeds, seedling growth and development, wild-type soybean; assay type: in vivo, Glycine max; parameters: key to Emergence timing / Hypocotyl length (6 DAP) / 1st internode length (12 DAP) / 3rd internode length (20 DAP): pos: emergence faster/stem segment longer than controls; 0: emergence timing/stem segment length similar to controls; neg: emergence slower/stem segment shorter than controls; details: for 1st internode length (12 DAP) / Emergence timing / Hypocotyl length (6 DAP): single rate per compound 8.3-16.5 μg/seed
In short: (§2)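 GA compounds dissolved in ethanol were applied as 1 μl droplets, each dried before the next, to the hilum of GA-deficient transgenic line 719 (R5) or wild-type soybean seeds; ethanol alone served as control. Emergence was scored over time as cotyledons at or above soil level, with growth measured after prolonged development.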

[6] = tested on: GA-deficient transgenic soybean line 719 (R5); experiment: Hilum treatment of soybean seeds, seedling growth and development, GA-deficient soybean; assay type: in vivo, Glycine max; parameters: key to Emergence timing / Hypocotyl length (6 DAP) / 1st internode length (12 DAP) / 3rd internode length (20 DAP) / 2nd internode length (12 DAP): pos: emergence faster/stem segment longer than controls; 0: emergence timing/stem segment length similar to controls; neg: emergence slower/stem segment shorter than controls; details: for 1st internode length (12 DAP) / Emergence timing / Hypocotyl length (6 DAP): single rate per compound 8.3-16.5 μg/seed
In short: as §2

[7] = Heavy soil - Loose, target rate 0.5 μg/seed, Table 23
[8] = Heavy soil - Loose, target rate 4.0 μg/seed, Table 23
[9] = Heavy soil - Loose, target rate 8.0 μg/seed, Table 23
[10] = Heavy soil - Loose, target rate 16.0 μg/seed, Table 23
[11] = Heavy soil - compacted, target rate 0.5 μg/seed, Table 23
[12] = Heavy soil - compacted, target rate 2.0 μg/seed, Table 23
[13] = Heavy soil - compacted, target rate 4.0 μg/seed, Table 23
[14] = Heavy soil - compacted, target rate 8.0 μg/seed, Table 23
[15] = Heavy soil - compacted, target rate 16.0 μg/seed, Table 23
[16] = Heavy soil - loose, target rate 0.5 μg/seed, Table 22
[17] = Heavy soil - loose, target rate 2.0 μg/seed, Table 22
[18] = Light soil - Compacted, target rate 0.5 μg/seed, Table 22
[19] = Light soil - Compacted, target rate 2.0 μg/seed, Table 22
[20] = Light soil - Loose, target rate 0.5 μg/seed, Table 24
[21] = Light soil - Loose, target rate 2.0 μg/seed, Table 24
[22] = Light soil - Loose, target rate 4.0 μg/seed, Table 24
[23] = Light soil - compacted, target rate 0.5 μg/seed, Table 24
[24] = Light soil - compacted, target rate 2.0 μg/seed, Table 24
[25] = Light soil - compacted, target rate 4.0 μg/seed, Table 24
[26] = L719, hilum treatment, rate response
[27] = L719, hilum treatment, single rate per compound 9.7-16.5 μg/seed
[28] = Heavy soil - Loose, target rate 2.0 μg/seed, Table 23

## C=C1C[C@]23C[C@@]1(O)CC[C@H]2[C@@]12C=C[C@H](O)[C@@](C)(C(=O)O1)[C@H]2[C@@H]3C(=O)O [GA3, gibberellic acid]
[1]
  Observation on Wild-Type Line A3237: 3
[2]
  restoration of height of line 234 soybeans: restore normal height to line 234 soybeans
  response of line 234 height: generally similar response
[3]; 0.0025 mg/ml
  Significant Visual Observations on Line 719: Excessive elongation
[3]; 0.025 mg/ml
  Significant Visual Observations on Line 719: Excessive elongation
[3]; 0.25 mg/ml
  Significant Visual Observations on Line 719: Excessive elongation
[4]; 0.25 mg/ml
  Significant Visual Observations on Line A3237: Poor emergence
[5]; 0.1 μg/seed
  % Emergence, Heavy Soil-Loose: 78%
  % Emergence, Light Soil-Compact: 59%
  % Rescue, Heavy Soil-Loose: 80%
  % Rescue, Light Soil-Compact: 100%
[5]; 2.0 μg/seed
  % Emergence, Heavy Soil-Loose: 66%
  % Emergence, Light Soil-Compact: 51%
  % Rescue, Heavy Soil-Loose: 93%
  % Rescue, Light Soil-Compact: 100%
[5]; [7]
  Count (emergence): 27.3 cd
  Dwarfs (number of dwarfs not rescued): 2.0 cde
[5]; [8]
  Count (emergence): 14.3 f
  Dwarfs (number of dwarfs not rescued): 0 e
[5]; [9]
  Count (emergence): 35.3 abc
  Dwarfs (number of dwarfs not rescued): 0.7 cde
[5]; [10]
  Count (emergence): 30.7 bcd
  Dwarfs (number of dwarfs not rescued): 0 e
[5]; [11]
  Count (emergence): 7.7 efg
  Dwarfs (number of dwarfs not rescued): 0.3 cd
[5]; [12]
  Dwarfs (number of dwarfs not rescued): 0 days
[5]; [13]
  Count (emergence): 3.3 fg
  Dwarfs (number of dwarfs not rescued): 0 days
[5]; [14]
  Count (emergence): 8.7 g·days
  Dwarfs (number of dwarfs not rescued): 0 days
[5]; [15]
  Count (emergence): 12.0 b-e
  Dwarfs (number of dwarfs not rescued): 0 days
[5]; [16]
  Count (emergence): 27 cd
  Dwarfs (number of dwarfs not rescued): 2.0 cde
[5]; [17]
  Count (emergence): 25 de
  Dwarfs (number of dwarfs not rescued): 0.7 cde
[5]; [18]
  Count (emergence): 22 efg
  Dwarfs (number of dwarfs not rescued): 0 days
[5]; [19]
  Count (emergence): 19 fg
  Dwarfs (number of dwarfs not rescued): 0 days
[5]; [20]
  Count (emergence): 45.0 ab
  Dwarfs (number not rescued): 0 e
[5]; [21]
  Count (emergence): 43.7 ab
  Dwarfs (number not rescued): 0 e
[5]; [22]
  Count (emergence): 39.3 b
  Dwarfs (number not rescued): 0 e
[5]; [23]
  Count (emergence): 1.2e+16 fg
  Dwarfs (number not rescued): 0
[5]; [24]
  Count (emergence): 19.3 fg
  Dwarfs (number not rescued): 0
[5]; [25]
  Count (emergence): 26.3 c-f
  Dwarfs (number not rescued): 0
[5]
  rank of potential for rescuing GA-deficient dwarf soybeans without decreasing emergence: GA9>GA5>GA3-3-acetate>GA3>GA12
[5]; Table 22
  best to least selectivity order: GA9>GA5>GA3-3-acetate>GA3
wild-type A3237 soybean; rate response
  Lowest rate where biological activity is observed, 1st internode length (10 DAP): 1 μg/seed
  Lowest rate where biological activity is observed, emergence timing: 0.1 μg/seed
  Lowest rate where biological activity is observed, hypocotyl length (5 DAP): 0.1 μg/seed
wild-type A3237 soybean
  1st internode length (12 DAP): 0
  Emergence timing: pos
  Hypocotyl length (6 DAP): pos
[6]; [26]
  Lowest rate where biological activity is observed, 1st internode length (10 DAP): 10 μg/seed
  Lowest rate where biological activity is observed, emergence timing: 0.1 μg/seed
  Lowest rate where biological activity is observed, hypocotyl length (5 DAP): 0.1 μg/seed
[6]; L719, hilum treatment
  1st internode length (12 DAP): pos
  Emergence timing: pos
  Hypocotyl length (6 DAP): pos
[6]; [27]
  2nd internode length (12 DAP): 0
  3rd internode length (20 DAP): 0
[6]; initial seed dose approximately 10 μg/seed, hilum
  stem elongation past the first internode: not active beyond the first internode

## C=C1C[C@]23C[C@@]1(O)CC[C@H]2[C@@]12C=C[C@H](OC(C)=O)[C@@](C)(C(=O)O1)[C@H]2[C@@H]3C(=O)O [GA3-3-acetate]
[1]
  Observation on Wild-Type Line A3237: 3
[2]
  restoration of height of line 234 soybeans: restore normal height to line 234 soybeans
  response of line 234 height: generally similar response
[3]; 0.0025 mg/ml
  Significant Visual Observations on Line 719: good rescue, with no overelongation
[3]; 0.025 mg/ml
  Significant Visual Observations on Line 719: Poor rescue
[3]; 0.25 mg/ml
  Significant Visual Observations on Line 719: Excessive elongation
[4]; 0.0025 mg/ml
  Significant Visual Observations on Line A3237: Normal height
[5]; [7]
  Count (emergence): 31.3 bcd
  Dwarfs (number of dwarfs not rescued): 0.3 de
[5]; [28]
  Count (emergence): 27.3 cd
  Dwarfs (number of dwarfs not rescued): 0 e
[5]; [8]
  Count (emergence): 18.3 ef
  Dwarfs (number of dwarfs not rescued): 0 e
[5]; [11]
  Count (emergence): 10.3 c-f
  Dwarfs (number of dwarfs not rescued): 0.3 cd
[5]; [12]
  Count (emergence): 7.3 efg
  Dwarfs (number of dwarfs not rescued): 0 days
[5]; [13]
  Count (emergence): 2e+15 fg
  Dwarfs (number of dwarfs not rescued): 0 days
[5]; [16]
  Count (emergence): 31 bcd
  Dwarfs (number of dwarfs not rescued): 3.3 c
[5]; [17]
  Count (emergence): 27 cd
  Dwarfs (number of dwarfs not rescued): 0.3 de
[5]; [18]
  Count (emergence): 25 def
  Dwarfs (number of dwarfs not rescued): 0 days
[5]; [19]
  Count (emergence): 22 efg
  Dwarfs (number of dwarfs not rescued): 0 days
[5]; [20]
  Count (emergence): 45.3 ab
  Dwarfs (number not rescued): 0.3 e
[5]; [21]
  Count (emergence): 43.3 ab
  Dwarfs (number not rescued): 0 c
[5]; [22]
  Count (emergence): 42.7 ab
  Dwarfs (number not rescued): 0 c
[5]; [23]
  Count (emergence): 25.3 def
  Dwarfs (number not rescued): 0
[5]; [24]
  Count (emergence): 22.0 efg
  Dwarfs (number not rescued): 0
[5]; [25]
  Count (emergence): 33.7 a-e
  Dwarfs (number not rescued): 0
[5]
  rank of potential for rescuing GA-deficient dwarf soybeans without decreasing emergence: GA9>GA5>GA3-3-acetate>GA3>GA12
[5]; Table 22
  best to least selectivity order: GA9>GA5>GA3-3-acetate>GA3
wild-type A3237 soybean
  1st internode length (12 DAP): 0
  Emergence timing: pos
  Hypocotyl length (6 DAP): pos
[6]; L719, hilum treatment
  1st internode length (12 DAP): pos
  Emergence timing: pos
  Hypocotyl length (6 DAP): pos
